Measurements published in article PMC6861653 (Chembiochem : a European journal of chemical biology, 2019).
*1 amine or outer side, *2 acyl side, *3 side chain or, on linkers, in order; H or OH if unused. Where a SMILES comes first, the peptide text is derived from it. [ ]: non-standard residue; d: D form. X1 = O=C([C@H]1CCC[C@@H]1N[*:1])[*:2]

Assays:
Type in all cases: cell-based
GLP-1R [1] = target: T1, GLP-1R (Homo sapiens, UniProt P43220); test: Signaling bias by Black-Leff operational model
T1 sequence (P43220 24-463, species assumed): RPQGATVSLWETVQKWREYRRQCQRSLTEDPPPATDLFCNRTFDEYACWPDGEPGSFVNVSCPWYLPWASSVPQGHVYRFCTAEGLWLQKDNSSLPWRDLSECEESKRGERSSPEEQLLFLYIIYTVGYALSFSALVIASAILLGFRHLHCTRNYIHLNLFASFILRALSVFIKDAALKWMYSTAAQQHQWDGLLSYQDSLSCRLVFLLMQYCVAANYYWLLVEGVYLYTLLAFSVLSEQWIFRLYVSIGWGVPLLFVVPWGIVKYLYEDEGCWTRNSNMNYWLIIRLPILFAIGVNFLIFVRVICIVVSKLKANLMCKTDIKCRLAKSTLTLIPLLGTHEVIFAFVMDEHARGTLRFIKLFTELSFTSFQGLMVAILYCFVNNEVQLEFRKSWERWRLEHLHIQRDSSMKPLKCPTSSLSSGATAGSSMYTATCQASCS

[2] = target: GLP-1R-RLuc8 / GFP^2-β-arrestin-2(R393E, R395E) (Homo sapiens, UniProt P43220); test: β-arrestin-2 recruitment to GLP-1R, BRET assay in HEK293FT cells
GLP-1R-RLuc8 / GFP^2-β-arrestin-2(R393E, R395E), sequence (P43220 24-463, stated change not applied): as the sequence (P43220 24-463, species assumed) above

[3] = target: GLP-1R-RLuc8 / GFP^2-β-arrestin-1 (Homo sapiens, UniProt P43220); test: β-arrestin-1 recruitment to GLP-1R, BRET assay in HEK293FT cells
GLP-1R-RLuc8 / GFP^2-β-arrestin-1, sequence (P43220 24-463): as the sequence (P43220 24-463, species assumed) above
GLP-1R-RLuc8 / GFP^2-β-arrestin-1, sequence (P49407 whole entry partner): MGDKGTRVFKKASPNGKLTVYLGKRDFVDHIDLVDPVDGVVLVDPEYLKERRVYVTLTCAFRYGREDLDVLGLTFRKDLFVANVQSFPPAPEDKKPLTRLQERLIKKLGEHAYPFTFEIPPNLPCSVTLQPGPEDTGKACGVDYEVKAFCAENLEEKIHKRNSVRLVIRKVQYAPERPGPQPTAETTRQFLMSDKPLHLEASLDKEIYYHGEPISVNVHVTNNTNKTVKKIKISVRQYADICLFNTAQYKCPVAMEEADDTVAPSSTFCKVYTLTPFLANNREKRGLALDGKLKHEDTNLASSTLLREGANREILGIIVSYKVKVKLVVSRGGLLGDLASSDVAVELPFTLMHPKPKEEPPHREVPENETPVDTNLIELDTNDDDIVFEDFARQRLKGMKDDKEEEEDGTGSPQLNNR

GLP-1R [4] = target: T1, GLP-1R; conditions: HEK293 GloSensor cells transiently expressing GLP-1R

SMILES | Signal bias relative to GLP-1, in words (GLP-1R [1]) | β-arrestin-2 recruitment to the GLP-1R, in words [2] | β-arrestin-1 recruitment to the GLP-1R, in words [3] | GLP-1R activation by cAMP production, in words (GLP-1R [4])
CC[C@H](C)[C@H](NC(=O)[C@H](Cc1ccccc1)NC(=O)[C@H](CCC(=O)O)NC(=O)[C@H]1CCC[C@@H]1NC(=O)[C@H](C)NC(=O)[C@H](C)NC(=O)[C@H](CCC(N)=O)NC(=O)[C@H]1CCC[C@@H]1NC(=O)[C@H](CCC(=O)O)NC(=O)[C@H](CC(C)C)NC(=O)[C@H](Cc1ccc(O)cc1)NC(=O)[C@H]1CCC[C@@H]1NC(=O)[C@H](CO)NC(=O)[C@@H](NC(=O)[C@H](CC(=O)O)NC(=O)[C@H](CO)NC(=O)[C@@H](NC(=O)[C@H](Cc1ccccc1)NC(=O)[C@@H](NC(=O)CNC(=O)[C@H](CCC(=O)O)NC(=O)[C@H](C)NC(=O)[C@@H](N)Cc1c[nH]cn1)[C@@H](C)O)[C@@H](C)O)C(C)C)C(=O)N[C@H]1CCC[C@@H]1C(=O)N[C@@H](Cc1c[nH]c2ccccc12)C(=O)N[C@@H](CC(C)C)C(=O)N[C@H](C(=O)N[C@H]1CCC[C@@H]1C(=O)NCC(=O)N[C@@H](CCCNC(=N)N)C(N)=O)C(C)C [1b] (H-HAEGTFTSDVS[X1]YLE[X1]QAA[X1]EFI[X1]WLV[X1]GR-NH2; N-terminus assumed) | biased toward β-arrestin-2 recruitment vs. cAMP production | – | – | –
CC[C@H](C)[C@H](NC(=O)[C@H](Cc1ccccc1)NC(=O)C[C@H](CCC(=O)O)NC(=O)[C@H](CCCCN)NC(=O)[C@H](C)NC(=O)[C@H](C)NC(=O)C[C@H](CCC(N)=O)NC(=O)CNC(=O)[C@H](CCC(=O)O)NC(=O)[C@H](CC(C)C)NC(=O)C[C@H](Cc1ccc(O)cc1)NC(=O)[C@H](CO)NC(=O)[C@H](CO)NC(=O)[C@@H](NC(=O)[C@H](CC(=O)O)NC(=O)[C@H](CO)NC(=O)[C@@H](NC(=O)[C@H](Cc1ccccc1)NC(=O)[C@@H](NC(=O)CNC(=O)[C@H](CCC(=O)O)NC(=O)[C@H](C)NC(=O)[C@@H](N)Cc1c[nH]cn1)[C@@H](C)O)[C@@H](C)O)C(C)C)C(=O)N[C@@H](C)C(=O)N[C@H](CC(=O)N[C@@H](CC(C)C)C(=O)N[C@H](C(=O)N[C@@H](CCCCN)C(=O)NCCC(=O)N[C@@H](CCCNC(=N)N)C(N)=O)C(C)C)Cc1c[nH]c2ccccc12 [2a] | modestly biased toward cAMP production relative to β-arrestin-1 recruitment | – | – | –
CC[C@H](C)[C@H](NC(=O)[C@H](Cc1ccccc1)NC(=O)[C@H]1CCC[C@@H]1NC(=O)[C@H](CCCCN)NC(=O)[C@H](C)NC(=O)[C@H](C)NC(=O)[C@H]1CCC[C@@H]1NC(=O)CNC(=O)[C@H](CCC(=O)O)NC(=O)[C@H](CC(C)C)NC(=O)[C@H]1CCC[C@@H]1NC(=O)[C@H](CO)NC(=O)[C@H](CO)NC(=O)[C@@H](NC(=O)[C@H](CC(=O)O)NC(=O)[C@H](CO)NC(=O)[C@@H](NC(=O)[C@H](Cc1ccccc1)NC(=O)[C@@H](NC(=O)CNC(=O)[C@H](CCC(=O)O)NC(=O)[C@H](C)NC(=O)[C@@H](N)Cc1c[nH]cn1)[C@@H](C)O)[C@@H](C)O)C(C)C)C(=O)N[C@@H](C)C(=O)N[C@H]1CCC[C@@H]1C(=O)N[C@@H](CC(C)C)C(=O)N[C@H](C(=O)N[C@@H](CCCCN)C(=O)N[C@H]1CCC[C@@H]1C(=O)N[C@@H](CCCNC(=N)N)C(N)=O)C(C)C [2b] (H-HAEGTFTSDVSS[X1]LEG[X1]AAK[X1]FIA[X1]LVK[X1]R-NH2; N-terminus assumed) | smaller bias toward β-arrestin-2 vs. cAMP production | – | – | –
CC[C@H](C)[C@H](NC(=O)[C@H]1CCC[C@@H]1NC(=O)[C@H](CCC(=O)O)NC(=O)[C@H](CCCCN)NC(=O)[C@H](C)NC(=O)[C@H]1CCC[C@@H]1NC(=O)[C@H](CCC(N)=O)NC(=O)CNC(=O)[C@H](CCC(=O)O)NC(=O)[C@H]1CCC[C@@H]1NC(=O)[C@H](Cc1ccc(O)cc1)NC(=O)[C@H](CO)NC(=O)[C@H](CO)NC(=O)[C@@H](NC(=O)[C@H](CC(=O)O)NC(=O)[C@H](CO)NC(=O)[C@@H](NC(=O)[C@H](Cc1ccccc1)NC(=O)[C@@H](NC(=O)CNC(=O)[C@H](CCC(=O)O)NC(=O)[C@H](C)NC(=O)[C@@H](N)Cc1c[nH]cn1)[C@@H](C)O)[C@@H](C)O)C(C)C)C(=O)N[C@@H](C)C(=O)N[C@@H](Cc1c[nH]c2ccccc12)C(=O)N[C@H]1CCC[C@@H]1C(=O)N[C@H](C(=O)N[C@@H](CCCCN)C(=O)NCC(=O)N[C@H]1CCC[C@@H]1C(=O)NCC(N)=O)C(C)C [3b] (H-HAEGTFTSDVSSY[X1]EGQ[X1]AKE[X1]IAW[X1]VKG[X1]G-NH2; N-terminus assumed) | – | inability to induce recruitment of either β-arrestin | inability to induce recruitment of either β-arrestin | no activation of the GLP-1R could be detected
CC(C)C[C@H](NC(=O)[C@H](Cc1ccc(O)cc1)NC(=O)[C@H](CO)NC(=O)[C@H]1CCC[C@@H]1NC(=O)[C@@H](NC(=O)[C@H](CC(=O)O)NC(=O)[C@H](CO)NC(=O)[C@@H](NC(=O)[C@H](Cc1ccccc1)NC(=O)[C@@H](NC(=O)CNC(=O)[C@H](CCC(=O)O)NC(=O)[C@H](C)NC(=O)[C@@H](N)Cc1c[nH]cn1)[C@@H](C)O)[C@@H](C)O)C(C)C)C(=O)N[C@H]1CCC[C@@H]1C(=O)NCC(=O)N[C@@H](CCC(N)=O)C(=O)N[C@@H](C)C(=O)N[C@H]1CCC[C@@H]1C(=O)N[C@@H](CCCCN)C(=O)N[C@@H](CCC(=O)O)C(=O)N[C@@H](Cc1ccccc1)C(=O)N[C@H]1CCC[C@@H]1C(=O)N[C@@H](C)C(=O)N[C@@H](Cc1c[nH]c2ccccc12)C(=O)N[C@@H](CC(C)C)C(=O)N[C@H]1CCC[C@@H]1C(=O)N[C@@H](CCCCN)C(=O)NCC(=O)N[C@@H](CCCNC(=N)N)C(N)=O [4b] (H-HAEGTFTSDV[X1]SYL[X1]GQA[X1]KEF[X1]AWL[X1]KGR-NH2; N-terminus assumed) | balanced signaling behavior | – | – | –
